In patent US8664203B2, “Thiazole derivatives and their use as P2Y12 receptor antagonists” (Actelion Pharmaceuticals Ltd., priority 2009, dated 2014):

Biological target: T1, human P2Y12 receptor (Homo sapiens, UniProt Q9H244)
T1 construct: expressed in transfected cells; host or cells: CHO cells
Test: P2Y12 receptor binding assay
Conditions: CHO cells with recombinant expression of the human P2Y12 receptor; tritium-labeled 2-methyl-S-ADP; RT, 2 hours
Description: P2Y12 Receptor Binding Assay
Chinese Hamster Ovary (CHO) cells with recombinant expression of the human P2Y12 receptor were cultured in 24 well cell-culture plates. Cells were washed three times with binding buffer (50 mM Tris pH 7.4, 100 mM NaCl, 1 mM EDTA, 0.5% BSA). The cells were then incubated with 0.5 ml per well binding buffer containing tritium-labeled 2-methyl-thio-adenosine 5′-diphosphate (2-methyl-S-ADP) (between 100′000 and 300′000 dpm per well) and various concentrations of test compounds. After incubation at RT for 2 hours, cells were washed three times with binding buffer. Then, cells were solubilized by addition of 0.5 ml solubilization buffer (SDS, NaOH, EDTA). The content of each well was then transferred into beta-counter vials and 2.0 ml of Ultima Gold Scintillation liquid was added.

T1 sequence (Q9H244 whole entry): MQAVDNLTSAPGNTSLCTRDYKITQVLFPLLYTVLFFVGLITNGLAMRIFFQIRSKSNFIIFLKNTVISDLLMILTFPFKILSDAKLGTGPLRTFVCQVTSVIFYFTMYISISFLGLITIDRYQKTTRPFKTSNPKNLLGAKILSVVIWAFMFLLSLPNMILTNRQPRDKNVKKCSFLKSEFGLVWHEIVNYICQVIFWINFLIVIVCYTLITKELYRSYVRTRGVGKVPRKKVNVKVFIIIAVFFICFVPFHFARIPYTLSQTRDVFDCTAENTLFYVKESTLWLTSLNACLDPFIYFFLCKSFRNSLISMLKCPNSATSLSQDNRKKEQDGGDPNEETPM

Structure (SMILES) | IC50 [nM]
CCCCOC(=O)N1CCN(C(=O)[C@H](CP(=O)(OCC)OCC)NC(=O)c2csc(-c3ccccc3)n2)CC1 [Example 8, 4-{(R)-3-(Diethoxy-phosphoryl)-2-[(2-phenyl-thiazole-4-carbonyl)-amino]-propionyl}-piperazine-1-carboxylic acid butyl ester] | 502
CCCCOC(=O)N1CCN(C(=O)[C@H](CP(=O)(OCOC(=O)OCC)OCOC(=O)OCC)NC(=O)c2csc(-c3ccccc3)n2)CC1 [Example 59, 4-{(R)-3-[Bis-(ethoxycarbonyloxymethoxy)-phosphoryl]-2-[(2-phenyl-thiazole-4-carbonyl)-amino]-propionyl}-piperazine-1-carboxylic acid butyl ester] | 15
CCCCOC(=O)N1CCN(C(=O)[C@H](CCC(=O)OC(C)(C)C)NC(=O)c2nc(-c3ccccc3)sc2Br)CC1 [Example 14, 4-{(S)-2-[(5-Bromo-2-phenyl-thiazole-4-carbonyl)-amino]-4-tert-butoxycarbonyl-butyryl}-piperazine-1-carboxylic acid butyl ester] | 1220
CCOC(=O)N1CCN(C(=O)[C@H](Cc2ccc(P(=O)(OCC)OCC)cc2)NC(=O)c2csc(-c3ccccc3)n2)CC1 [Example 12, 4-{(S)-3-[4-(Diethoxy-phosphoryl)-phenyl]-2-[(2-phenyl-thiazole-4-carbonyl)-amino]-propionyl}-piperazine-1-carboxylic acid ethyl ester] | 4940
CCCCOC(=O)N1CCN(C(=O)CNC(=O)c2nc(-c3ccccc3)sc2NCCCO)CC1 [Example 27, 4-(2-{[5-(3-Hydroxy-propylamino)-2-phenyl-thiazole-4-carbonyl]-amino}-acetyl)-piperazine-1-carboxylic acid butyl ester] | 34
CCCCOC(=O)N1CCN(C(=O)[C@H](CP(=O)(OCOC(C)=O)OCOC(C)=O)NC(=O)c2csc(-c3ccccc3)n2)CC1 [Example 57, 4-{(R)-3-[Bis-(acetoxymethoxy)-phosphoryl]-2-[(2-phenyl-thiazole-4-carbonyl)-amino]-propionyl}-piperazine-1-carboxylic acid butyl ester] | 5
CCCCOC(=O)N1CCN(C(=O)CNC(=O)c2nc(-c3ccccc3)sc2CCC(=O)OCC)CC1 [Example 32, 4-(2-{[5-(2-Ethoxycarbonyl-ethyl)-2-phenyl-thiazole-4-carbonyl]-amino}-acetyl)-piperazine-1-carboxylic acid butyl ester] | 157
CCCCOC(=O)N1CCN(C(=O)[C@H](CO)NC(=O)c2nc(-c3ccccc3)sc2CCC(=O)O)CC1 [Example 40, 4-((S)-2-{[5-(2-Carboxy-ethyl)-2-phenyl-thiazole-4-carbonyl]-amino}-3-hydroxy-propionyl)-piperazine-1-carboxylic acid butyl ester] | 43
CCCCOC(=O)N1CCN(C(=O)CNC(=O)c2csc(-c3ccccc3)n2)CC1 [Example 26, 4-{2-[(2-Phenyl-thiazole-4-carbonyl)-amino]-acetyl}-piperazine-1-carboxylic acid butyl ester] | 94
CCCCOC(=O)N1CCN(C(=O)CNC(=O)c2nc(-c3ccccc3)c(/C=C/C(=O)OCC)s2)CC1 [Example 53, 4-(2-{[5-((E)-2-Ethoxycarbonyl-vinyl)-4-phenyl-thiazole-2-carbonyl]-amino}-acetyl)-piperazine-1-carboxylic acid butyl ester] | 513
CCCCOC(=O)N1CCN(C(=O)CNC(=O)c2nc(-c3ccccc3)sc2C=CCOC)CC1 [Example 34, 4-(2-{[5-(3-Methoxy-propenyl)-2-phenyl-thiazole-4-carbonyl]-amino}-acetyl)-piperazine-1-carboxylic acid butyl ester] | 85
CCCCOC(=O)N1CCN(C(=O)CNC(=O)c2nc(-c3ccccc3)sc2CCC(=O)O)CC1 [Example 33, 4-(2-{[5-(2-Carboxy-ethyl)-2-phenyl-thiazole-4-carbonyl]-amino}-acetyl)-piperazine-1-carboxylic acid butyl ester] | 31
CCCCOC(=O)N1CCN(C(=O)CNC(=O)c2nc(-c3ccccc3)c(CCCOC)s2)CC1 [Example 52, 4-(2-{[5-(3-Methoxy-propyl)-4-phenyl-thiazole-2-carbonyl]-amino}-acetyl)-piperazine-1-carboxylic acid butyl ester] | 743
CCCCOC(=O)N1CCN(C(=O)[C@@H](NC(=O)c2csc(-c3ccccc3)n2)C(C)C)CC1 [Example 36, 4-{(S)-3-Methyl-2-[(2-phenyl-thiazole-4-carbonyl)-amino]-butyryl}-piperazine-1-carboxylic acid butyl ester] | 104
CCCCOC(=O)N1CCN(C(=O)CNC(=O)c2nc(-c3ccccc3)c(CCC(=O)O)s2)CC1 [Example 55, 4-(2-{[5-(2-Carboxy-ethyl)-4-phenyl-thiazole-2-carbonyl]-amino}-acetyl)-piperazine-1-carboxylic acid butyl ester] | 314

More lines, now with the values ahead:

IC50 [nM] | Structure (SMILES)
464 | CCCCOC(=O)N1CCN(C(=O)[C@H](CCC(=O)O)NC(=O)c2csc(-c3ccccc3OC)n2)CC1 [Example 5, 4-((S)-4-Carboxy-2-{[2-(2-methoxy-phenyl)-thiazole-4-carbonyl]-amino}-butyryl)-piperazine-1-carboxylic acid butyl ester]
7 | CCCCOC(=O)N1CCN(C(=O)[C@H](CCC(=O)O)NC(=O)c2nc(-c3ccccc3)sc2Cl)CC1 [Example 16, 4-{(S)-4-Carboxy-2-[(5-chloro-2-phenyl-thiazole-4-carbonyl)-amino]-butyryl}-piperazine-1-carboxylic acid butyl ester]
6 | CCCCOC(=O)N1CCN(C(=O)[C@H](CCC(=O)O)NC(=O)c2nc(-c3ccccc3)sc2/C=C/C(=O)O)CC1 [Example 19, 4-((S)-4-Carboxy-2-{[5-((E)-2-carboxy-vinyl)-2-phenyl-thiazole-4-carbonyl]-amino}-butyryl)-piperazine-1-carboxylic acid butyl ester]
7 | CCCCOC(=O)N1CCN(C(=O)[C@H](CCC(=O)O)NC(=O)c2nc(-c3ccccc3)sc2N2CCCC2)CC1 [Example 24, 4-{(S)-4-Carboxy-2-[(2-phenyl-5-pyrrolidin-1-yl-thiazole-4-carbonyl)-amino]-butyryl}-piperazine-1-carboxylic acid butyl ester]
334 | CCCCOC(=O)N1CCN(C(=O)[C@H](CCC(=O)O)NC(=O)c2csc(-c3ccccc3C)n2)CC1 [Example 6, 4-{(S)-4-Carboxy-2-[(2-o-tolyl-thiazole-4-carbonyl)-amino]-butyryl}-piperazine-1-carboxylic acid butyl ester]
1470 | CCCCOC(=O)N1CCN(C(=O)[C@H](CCC(=O)O)NC(=O)c2csc(-c3ccccc3Oc3ccccc3)n2)CC1 [Example 3, 4-((S)-4-Carboxy-2-{[2-(2-phenoxy-phenyl)-thiazole-4-carbonyl]-amino}-butyryl)-piperazine-1-carboxylic acid butyl ester]
246 | CCOC(=O)N1CCN(C(=O)[C@H](CCC(=O)O)NC(=O)c2csc(-c3ccccc3)n2)CC1 [Example 2, 4-{(S)-4-Carboxy-2-[(2-phenyl-thiazole-4-carbonyl)-amino]-butyryl}-piperazine-1-carboxylic acid ethyl ester]
13 | CCCCOC(=O)N1CCN(C(=O)[C@H](CP(=O)(O)O)NC(=O)c2nc(-c3ccccc3)sc2-c2ccccc2)CC1 [Example 43, 4-{(R)-2-[(2,5-Diphenyl-thiazole-4-carbonyl)-amino]-3-phosphono-propionyl}-piperazine-1-carboxylic acid butyl ester]
2 | CCCCOC(=O)N1CCN(C(=O)[C@H](CP(=O)(O)O)NC(=O)c2csc(-c3ccccc3)n2)CC1 [Example 9, 4-{(R)-2-[(2-Phenyl-thiazole-4-carbonyl)-amino]-3-phosphono-propionyl}-piperazine-1-carboxylic acid butyl ester]
249 | CCCCOC(=O)N1CCN(C(=O)[C@H](CCC(=O)O)NC(=O)c2csc(-c3cccc(OC)c3)n2)CC1 [Example 4, 4-((S)-4-Carboxy-2-{[2-(3-methoxy-phenyl)-thiazole-4-carbonyl]-amino}-butyryl)-piperazine-1-carboxylic acid butyl ester]
71 | CCCCOC(=O)N1CCN(C(=O)[C@H](CO)NC(=O)c2csc(-c3ccccc3)n2)CC1 [Example 38, 4-{(S)-3-Hydroxy-2-[(2-phenyl-thiazole-4-carbonyl)-amino]-propionyl}-piperazine-1-carboxylic acid butyl ester]
6 | CCCCOC(=O)N1CCN(C(=O)[C@H](CP(=O)(O)O)NC(=O)c2csc(-c3ccc(F)cc3)n2)CC1 [Example 41, 4-((R)-2-{[2-(4-Fluoro-phenyl)-thiazole-4-carbonyl]-amino}-3-phosphono-propionyl)-piperazine-1-carboxylic acid butyl ester]
43 | CCCCOC(=O)N1CCN(C(=O)[C@H](CCC(=O)O)NC(=O)c2nc(-c3ccccc3)sc2-c2ccccc2)CC1 [Example 17, 4-{(S)-4-Carboxy-2-[(2,5-diphenyl-thiazole-4-carbonyl)-amino]-butyryl}-piperazine-1-carboxylic acid butyl ester]
28 | CCCCOC(=O)N1CCN(C(=O)[C@H](CCC(=O)O)NC(=O)c2nc(-c3ccccc3)sc2CCCOC)CC1 [Example 22, 4-((S)-4-Carboxy-2-{[5-(3-methoxy-propyl)-2-phenyl-thiazole-4-carbonyl]-amino}-butyryl)-piperazine-1-carboxylic acid butyl ester]
